Literature values as cited in patent US20050032747A1, “COX-2 and FAAH inhibitors” (priority 2003, published 2005).

Test system: prostaglandin synthesis
Details: reported by Shen et al. 1977

Structure (SMILES): Cc1c(CC(=O)O)c2cc(O)ccc2n1C(=O)c1ccc(Cl)cc1 [desmethylindomethacin, O-desmethylindomethacin]
- ability to inhibit prostaglandin synthesis: some ability to inhibit prostaglandin synthesis
